From the NIST ThermoML archive (doi:10.1021/je401066j)
Numbers after ± are expanded uncertainties.

Conditions: 101 kPa, Liquid mixture 1, Drop volume

With `CCCCCC` [hexane] + O the interfacial tension (288.2 K) was 51.4 ± 0.4 mN/m, the interfacial tension (293.2 K) was 51 ± 0.4 mN/m and the interfacial tension (298.2 K) was 50.7 ± 0.4 mN/m. The interfacial tension (303.2 K) was 50.4 ± 0.4 mN/m and the interfacial tension (308.2 K) was 50.2 ± 0.4 mN/m.
